Experiments:
Type in all cases: in vivo
[1] = tested on: velvetleaf (Abutilon theophrasti); assay: Test A pre-/postemergence: velvetleaf
Procedure, shortened: (§1)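 Visual 0–100 injury ratings (0 no effect, 100 complete control) taken about ten days after treatment, relative to untreated controls. Preemergence treatment was a directed soil spray; postemergence plants were 2–10 cm tall at one- to two-leaf stage. Soil: loam/sand blend.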

[2] = tested on: crabgrass, large (large crabgrass, Digitaria sanguinalis); assay: Test A pre-/postemergence: crabgrass, large
Procedure, shortened: as §1

[3] = tested on: morningglory (Ipomoea spp.); assay: Test A pre-/postemergence: morningglory
Procedure, shortened: as §1

[4] = tested on: barnyardgrass (Echinochloa crus-galli); assay: Test C flooded paddy test: barnyardgrass; conditions: scale 0 to 100 (0 no effect, 100 complete control)
Procedure, shortened: (§2)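 Rating: visual, 0–100 (100 = complete control), versus untreated controls after 13 to 15 greenhouse days. Treatment went into paddy water held at 3 cm over the soil, on plants grown to two leaves.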

[5] = tested on: wheat (Triticum aestivum); assay: Test A pre-/postemergence: wheat
Procedure, shortened: as §1

[6] = tested on: pigweed (Amaranthus retroflexus); assay: Test A pre-/postemergence: pigweed
Procedure, shortened: as §1

[7] = tested on: ducksalad (Heteranthera limosa); assay: Test C flooded paddy test: ducksalad; conditions: scale 0 to 100 (0 no effect, 100 complete control)
Procedure, shortened: as §2

corn (Zea mays) = assay: Test A pre-/postemergence: corn
Procedure, shortened: as §1

[8] = tested on: foxtail, giant (giant foxtail, Setaria faberii); assay: Test A pre-/postemergence: foxtail, giant
Procedure, shortened: as §1

[9] = tested on: sedge, umbrella (small-flower umbrella sedge, Cyperus difformis); assay: Test C flooded paddy test: sedge, umbrella; conditions: scale 0 to 100 (0 no effect, 100 complete control)
Procedure, shortened: as §2

rice (Oryza sativa) = assay: Test C flooded paddy test: rice; conditions: scale 0 to 100 (0 no effect, 100 complete control)
Procedure, shortened: as §2

[10] = tested on: barnyardgrass (Echinochloa crus-galli); assay: Test A pre-/postemergence: barnyardgrass
Procedure, shortened: as §1

[11] = Postemergence, 125 g ai/ha, 0 to 100 scale, 0 is no effect, 100 is complete control
[12] = Postemergence, 500 g ai/ha, visual rating on 0 to 100 scale (0 no effect, 100 complete control), approximately ten days
[13] = Preemergence, 125 g ai/ha, 0 to 100 scale where 0 is no effect and 100 is complete control
[14] = Preemergence, 500 g ai/ha, 0 to 100 scale, 0 is no effect, 100 is complete control
[15] = Preemergence, 125 g ai/ha, 0 to 100 scale (0 no effect, 100 complete control)
[16] = Flood (flooded paddy test), 125 g ai/ha, visual rating after 13 to 15 days
[17] = Flood (flooded paddy test), 250 g ai/ha, visual rating after 13 to 15 days
[18] = Postemergence, 1000 g ai/ha, visual rating on 0 to 100 scale (0 no effect, 100 complete control), approximately ten days
[19] = Preemergence, 1000 g ai/ha, 0 to 100 scale, 0 is no effect, 100 is complete control

For `Cc1nn(-c2ccc(F)cc2)nc1Oc1ccnc(C(F)(F)F)n1` [Compound 101], the “Velvetleaf plant response rating” value [1, 11] was 10, the “Velvetleaf plant response rating” value [1, 12] was 20 and the “Plant response rating, Velvetleaf” value [1, 13] was 0. The “Plant response rating, Velvetleaf” value [1, 14] was 0, the “Crabgrass, Large plant response rating” value [2, 11] was 70 and the “Crabgrass, Large plant response rating” value [2, 12] was 90. For the same compound, the “Plant response rating, Crabgrass, Large” value [2, 15] was 100, the “Plant response rating, Crabgrass, Large” value [2, 14] was 100 and the “Morningglory plant response rating” value [3, 11] was 40. The “Morningglory plant response rating” value [3, 12] was 40, the “Plant response rating, Morningglory” value [3, 13] was 0 and the “Plant response rating, Morningglory” value [3, 14] was 10. The “Plant response rating, Barnyardgrass” value [4, 16] was 55, the “Plant response rating, Barnyardgrass” value [4, 17] was 60 and the “Plant response rating, Barnyardgrass” value ([4]; Flood, 31 g ai/ha) was 0. For the same compound, the “Plant response rating, Barnyardgrass” value ([4]; Flood, 62 g ai/ha) was 0, the “Wheat plant response rating” value [5, 11] was 0 and the “Wheat plant response rating” value [5, 12] was 10. The “Plant response rating, Wheat” value [5, 13] was 0, the “Plant response rating, Wheat” value [5, 14] was 0 and the “Pigweed plant response rating” value [6, 11] was 80. The “Pigweed plant response rating” value [6, 12] was 90, the “Plant response rating, Pigweed” value [6, 13] was 100 and the “Plant response rating, Pigweed” value [6, 14] was 100. The “Plant response rating, Ducksalad” value [7, 16] was 50, the “Plant response rating, Ducksalad” value [7, 17] was 65 and the “Plant response rating, Ducksalad” value ([7]; Flood, 31 g ai/ha) was 0. For the same compound, the “Plant response rating, Ducksalad” value ([7]; Flood, 62 g ai/ha) was 20, the “Corn plant response rating” value (corn (Zea mays); [11]) was 10 and the “Corn plant response rating” value (corn (Zea mays); [12]) was 20. The “Plant response rating, Corn” value (corn (Zea mays); [15]) was 0, the “Plant response rating, Corn” value (corn (Zea mays); [14]) was 10 and the “Foxtail, Giant plant response rating” value [8, 11] was 70. The “Foxtail, Giant plant response rating” value [8, 12] was 90, the “Plant response rating, Foxtail, Giant” value [8, 13] was 100 and the “Plant response rating, Foxtail, Giant” value [8, 14] was 100. The “Plant response rating, Sedge, Umbrella” value [9, 16] was 50, the “Plant response rating, Sedge, Umbrella” value [9, 17] was 75 and the “Plant response rating, Sedge, Umbrella” value ([9]; Flood, 31 g ai/ha) was 0. The “Plant response rating, Sedge, Umbrella” value ([9]; Flood, 62 g ai/ha) was 0, the “Plant response rating, Rice” value (rice (Oryza sativa); [16]) was 15 and the “Plant response rating, Rice” value (rice (Oryza sativa); [17]) was 20. For the same compound, the “Plant response rating, Rice” value (rice (Oryza sativa); Flood, 31 g ai/ha) was 0, the “Plant response rating, Rice” value (rice (Oryza sativa); Flood, 62 g ai/ha) was 0 and the “Barnyardgrass plant response rating” value [10, 11] was 20. For the same compound, the “Barnyardgrass plant response rating” value [10, 12] was 60, the “Plant response rating, Barnyardgrass” value [10, 15] was 50 and the “Plant response rating, Barnyardgrass” value [10, 14] was 80.
With `Cc1nn(-c2ccc(C(F)(F)F)cn2)nc1C(=O)c1cccc(C(F)(F)F)c1` [Compound 107] the “Velvetleaf plant response rating” value [1, 11] was 40, the “Velvetleaf plant response rating” value [1, 12] was 50 and the “Plant response rating, Velvetleaf” value [1, 13] was 10. For the same compound, the “Plant response rating, Velvetleaf” value [1, 14] was 10, the “Crabgrass, Large plant response rating” value [2, 11] was 60 and the “Crabgrass, Large plant response rating” value [2, 12] was 90. For the same compound, the “Plant response rating, Crabgrass, Large” value [2, 15] was 100, the “Plant response rating, Crabgrass, Large” value [2, 14] was 100 and the “Morningglory plant response rating” value [3, 11] was 70. For the same compound, the “Morningglory plant response rating” value [3, 12] was 80, the “Plant response rating, Morningglory” value [3, 13] was 20 and the “Plant response rating, Morningglory” value [3, 14] was 30. For the same compound, the “Plant response rating, Barnyardgrass” value [4, 16] was 20, the “Plant response rating, Barnyardgrass” value [4, 17] was 25 and the “Plant response rating, Barnyardgrass” value ([4]; Flood, 31 g ai/ha) was 0. For the same compound, the “Plant response rating, Barnyardgrass” value ([4]; Flood, 62 g ai/ha) was 15, the “Wheat plant response rating” value [5, 11] was 20 and the “Wheat plant response rating” value [5, 12] was 40. The “Plant response rating, Wheat” value [5, 13] was 0, the “Plant response rating, Wheat” value [5, 14] was 0 and the “Pigweed plant response rating” value [6, 11] was 90. For the same compound, the “Pigweed plant response rating” value [6, 12] was 100, the “Plant response rating, Pigweed” value [6, 13] was 70 and the “Plant response rating, Pigweed” value [6, 14] was 100. For the same compound, the “Plant response rating, Ducksalad” value [7, 16] was 20, the “Plant response rating, Ducksalad” value [7, 17] was 40 and the “Plant response rating, Ducksalad” value ([7]; Flood, 31 g ai/ha) was 0. The “Plant response rating, Ducksalad” value ([7]; Flood, 62 g ai/ha) was 0, the “Corn plant response rating” value (corn (Zea mays); [11]) was 20 and the “Corn plant response rating” value (corn (Zea mays); [12]) was 30. The “Plant response rating, Corn” value (corn (Zea mays); [15]) was 0, the “Plant response rating, Corn” value (corn (Zea mays); [14]) was 10 and the “Foxtail, Giant plant response rating” value [8, 11] was 40. The “Foxtail, Giant plant response rating” value [8, 12] was 90, the “Plant response rating, Foxtail, Giant” value [8, 13] was 90 and the “Plant response rating, Foxtail, Giant” value [8, 14] was 100. For the same compound, the “Plant response rating, Sedge, Umbrella” value [9, 16] was 60, the “Plant response rating, Sedge, Umbrella” value [9, 17] was 80 and the “Plant response rating, Sedge, Umbrella” value ([9]; Flood, 31 g ai/ha) was 0. For the same compound, the “Plant response rating, Sedge, Umbrella” value ([9]; Flood, 62 g ai/ha) was 40, the “Plant response rating, Rice” value (rice (Oryza sativa); [16]) was 0 and the “Plant response rating, Rice” value (rice (Oryza sativa); [17]) was 25. For the same compound, the “Plant response rating, Rice” value (rice (Oryza sativa); Flood, 31 g ai/ha) was 0, the “Plant response rating, Rice” value (rice (Oryza sativa); Flood, 62 g ai/ha) was 0 and the “Barnyardgrass plant response rating” value [10, 11] was 30. The “Barnyardgrass plant response rating” value [10, 12] was 60, the “Plant response rating, Barnyardgrass” value [10, 15] was 30 and the “Plant response rating, Barnyardgrass” value [10, 14] was 80.
For `Cc1nn(-c2ccc(C(F)(F)F)cn2)nc1Oc1cccc(C(F)(F)F)c1` [Compound 109], the “Velvetleaf plant response rating” value [1, 18] was 80, the “Velvetleaf plant response rating” value [1, 19] was 30 and the “Crabgrass, Large plant response rating” value [2, 18] was 90. The “Crabgrass, Large plant response rating” value [2, 19] was 100, the “Morningglory plant response rating” value [3, 18] was 90 and the “Morningglory plant response rating” value [3, 19] was 50. The “Plant response rating, Barnyardgrass” value [4, 16] was 40, the “Plant response rating, Barnyardgrass” value [4, 17] was 75 and the “Plant response rating, Barnyardgrass” value ([4]; Flood, 31 g ai/ha) was 0. The “Plant response rating, Barnyardgrass” value ([4]; Flood, 62 g ai/ha) was 20, the “Wheat plant response rating” value [5, 18] was 50 and the “Wheat plant response rating” value [5, 19] was 20. For the same compound, the “Pigweed plant response rating” value [6, 18] was 100, the “Pigweed plant response rating” value [6, 19] was 100 and the “Plant response rating, Ducksalad” value [7, 16] was 60. For the same compound, the “Plant response rating, Ducksalad” value [7, 17] was 80, the “Plant response rating, Ducksalad” value ([7]; Flood, 31 g ai/ha) was 0 and the “Plant response rating, Ducksalad” value ([7]; Flood, 62 g ai/ha) was 20. For the same compound, the “Corn plant response rating” value (corn (Zea mays); [18]) was 90, the “Corn plant response rating” value (corn (Zea mays); [19]) was 40 and the “Foxtail, Giant plant response rating” value [8, 18] was 90. The “Foxtail, Giant plant response rating” value [8, 19] was 100, the “Plant response rating, Sedge, Umbrella” value [9, 16] was 85 and the “Plant response rating, Sedge, Umbrella” value [9, 17] was 85. The “Plant response rating, Sedge, Umbrella” value ([9]; Flood, 31 g ai/ha) was 38, the “Plant response rating, Sedge, Umbrella” value ([9]; Flood, 62 g ai/ha) was 63 and the “Plant response rating, Rice” value (rice (Oryza sativa); [16]) was 15. The “Plant response rating, Rice” value (rice (Oryza sativa); [17]) was 25, the “Plant response rating, Rice” value (rice (Oryza sativa); Flood, 31 g ai/ha) was 15 and the “Plant response rating, Rice” value (rice (Oryza sativa); Flood, 62 g ai/ha) was 15. The “Barnyardgrass plant response rating” value [10, 18] was 90 and the “Barnyardgrass plant response rating” value [10, 19] was 100.
